# Measured values from patent US8952024B2, “Herbicidal pyrimidone derivatives” (E I du Pont de Nemours and Company, priority 2009, dated 2015).
# Tests used:
# Type in all cases: in vivo
# [1] = system: winter barley (Hordeum vulgare); assay: Test B postemergence plant response; conditions: for Barley plant response rating (0 to 100 scale): 0 is no effect
# How it was run: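 Visual ratings from 0 (no effect) to 100 (complete control), made against controls 13–15 days after treatment, kept in a greenhouse. Compounds were applied postemergence to potted plants at the 1- to 4-leaf stage (2–18 cm).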
# [2] = system: Surinam grass (Brachiaria decumbens); assay: Test D pre-/postemergence plant response
# Source text: (§1) Seeds of plant species selected from bermudagrass (Cynodon dactylon), Surinam grass (Brachiaria decumbens), large crabgrass (Digitaria sanguinalis), green foxtail (Setaria viridis), goosegrass (Eleusine indica), johnsongrass (Sorghum halepense), kochia (Kochia scoparia), morningglory (pitted morningglory, Ipomoea lacunosa), nutsedge (purple nutsedge, Cyperus rotundus), ragweed (common ragweed, Ambrosia elatior), black mustard (Brassica nigra), guineagrass (Panicum maximum), dallisgrass (Paspalum dilatatum), barnyardgrass (Echinochloa crus-galli), sandbur (southern sandbur, Cenchrus echinatus), sowthistle (common sowthistle, Sonchus oleraceous), prickly sida (Sida spinosa), Italian ryegrass (Lolium multiflorum), purslane (common purslane, Portulaca oleracea), signalgrass (broadleaf signalgrass, Brachiaria platyphylla), groundsel (common groundsel, Senecio vulgaris), chickweed (common chickweed, Stellaria media), dayflower (Virginia (VA) dayflower, Commelina virginica), bluegrass (annual bluegrass, Poa annua), naked crabgrass (Digitaria nuda), itchgrass (Rottboellia cochinchinensis), quackgrass (Elytrigia repens), field bindweed (Convolvulus arvensis), spanishneedles (Bidens bipinnata), mallow (common mallow, Malva sylvestris) and Russian thistle (Salsola kali), were planted into a blend of loam soil and sand and treated preemergence with test chemicals formulated in a non-phytotoxic solvent mixture which included a surfactant. At the same time, plants from these weed species were treated with postemergence applications of the test chemicals formulated in the same manner. Plants ranged in height from 2 to 18 cm (1- to 4-leaf stage) for postemergence treatments.
# (§2) Treated plants and controls were maintained in a greenhouse for 14 to 21 days, after which time all species were visually evaluated and compared to controls. Plant response ratings, summarized in Table D, are based on a scale of 0 to 100 where 0 is no effect and 100 is complete control. A dash (-) response means no test result.
# [3] = system: Italian ryegrass (Lolium multiflorum); assay: Test D pre-/postemergence plant response
# Source text: as §1, §2
# [4] = system: prickly sida (Sida spinosa); assay: Test D pre-/postemergence plant response
# Source text: as §1, §2
# [5] = system: barnyardgrass (Echinochloa crus-galli); assay: Test D pre-/postemergence plant response
# Source text: as §1, §2
# [6] = system: black mustard (Brassica nigra); assay: Test D pre-/postemergence plant response
# Source text: as §1, §2
# [7] = system: Russian thistle (Salsola kali); assay: Test D pre-/postemergence plant response; conditions: Postemergence, 125 g ai/ha; scale 0 to 100 (0 no effect, 100 complete control)
# Source text: as §1, §2
# [8] = system: sunflower (common oilseed sunflower, Helianthus annuus); assay: Test B pre-/postemergence plant response; conditions: Preemergence; for Sunflower plant response rating: 250 g ai/ha, 0 to 100 scale
# How it was run: (§3)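 Plants treated either at seeding (loam/sand soil) or postemergence at 2 to 18 cm height, using a surfactant-containing non-phytotoxic solvent formulation. Evaluation was visual after 13 to 15 days, 0 to 100 scale relative to controls.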
# [9] = system: galium (catchweed bedstraw, Galium aparine); assay: Test B pre-/postemergence plant response; conditions: Preemergence
# How it was run: as §3
# [10] = system: nightshade (eastern black nightshade, Solanum ptycanthum); assay: Test B pre-/postemergence plant response; conditions: Preemergence; for Nightshade plant response rating: 250 g ai/ha, 0 to 100 scale
# How it was run: as §3
# [11] = Postemergence, 31 g ai/ha, 0 to 100 scale (0 no effect, 100 complete control)
# [12] = Postemergence, 62 g ai/ha, scale 0 to 100 (0 no effect, 100 complete control)
# [13] = Postemergence, 125 g ai/ha, scale 0 to 100 (0 no effect, 100 complete control)
# [14] = Postemergence, 250 g ai/ha, scale 0 to 100 (0 no effect, 100 complete control), 13 to 15 days
# [15] = Postemergence, 31 g ai/ha, scale 0 to 100 (0 no effect, 100 complete control)
# [16] = 31 g ai/ha, scale 0 to 100 (0 no effect, 100 complete control)
# [17] = 62 g ai/ha, scale 0 to 100 (0 no effect, 100 complete control)
# [18] = 125 g ai/ha, scale 0 to 100, 0 no effect, 100 complete control
# [19] = 31 g ai/ha, postemergence, scale 0 to 100, 0 is no effect, 100 is complete control
# [20] = 62 g ai/ha, postemergence, 100 is complete control, 13 to 15 days
# [21] = Postemergence, 125 g ai/ha, visual rating after 13 to 15 days, scale 0 (no effect) to 100 (complete control)
# [22] = Postemergence, 250 g ai/ha, scale 0 to 100 (0 no effect, 100 complete control)
# [23] = Postemergence, 31 g ai/ha, scale 0 to 100
# [24] = Preemergence, 16 g ai/ha, scale 0 to 100, 0 no effect, 100 complete control
# [25] = Preemergence, 31 g ai/ha, scale 0 to 100 (0 no effect, 100 complete control)
# [26] = Preemergence, 125 g ai/ha, scale 0 to 100
# [27] = Postemergence, 16 g ai/ha, scale 0 to 100
# [28] = Preemergence, 62 g ai/ha, scale 0 to 100
structure (smiles),measurement,setting,value
COCCn1c(-c2ccsc2)ncc(C(=O)C2=C(O)C3CCC(C3)C2=O)c1=O (centres unmarked) [Compound 228],"Plant response rating, Barley",[1]; [11],0
same,"Plant response rating, Barley",[1]; [12],5
same,"Plant response rating, Barley",[1]; [13],40
same,"Plant response rating, Barley",[1]; [14],40
same,"Plant response rating, Surinam Grass",[2]; [13],70
same,"Plant response rating, Ryegrass, Italian",[3]; [13],5
same,"Plant response rating, Prickly Sida",[4]; [13],65
same,"Plant response rating, Barnyardgrass",[5]; [15],20
same,"Plant response rating, Barnyardgrass",[5]; [13],80
same,"Plant response rating, Black Mustard",[6]; [15],20
same,"Plant response rating, Black Mustard",[6]; [13],50
same,"Plant response rating, Russian Thistle",[7],65
CCCn1c(-c2cccs2)ncc(C(=O)C2=C(O)CCCC2=O)c1=O [Compound 77],"Plant response rating, Sunflower",[8]; [16],60
same,"Plant response rating, Sunflower",[8]; [17],75
same,"Plant response rating, Sunflower",[8]; [18],75
same,Sunflower plant response rating,[8],85
same,"Plant response rating, Galium",[9]; [16],0
same,"Plant response rating, Galium",[9]; [17],20
same,"Plant response rating, Galium",[9]; [18],85
same,Galium plant response rating,"[9]; 250 g ai/ha, 0 to 100 scale",90
same,"Plant response rating, Nightshade",[10]; [16],98
same,"Plant response rating, Nightshade",[10]; [17],98
same,"Plant response rating, Nightshade",[10]; [18],98
same,Nightshade plant response rating,[10],100
same,"Plant response rating, Barley",[1]; [19],0
same,Barley plant response rating (0 to 100 scale),[1]; [20],0
same,"Plant response rating, Barley",[1]; [21],0
same,"Plant response rating, Barley",[1]; [22],0
CCc1ccc(-n2c(-c3ccccc3)ncc(C(=O)C3=C(O)CCCC3=O)c2=O)cc1 [Compound 219],"Plant response rating, Sunflower",[8]; [16],0
same,"Plant response rating, Sunflower",[8]; [17],45
same,"Plant response rating, Sunflower",[8]; [18],80
same,Sunflower plant response rating,[8],85
same,"Plant response rating, Galium",[9]; [16],75
same,"Plant response rating, Galium",[9]; [17],85
same,"Plant response rating, Galium",[9]; [18],98
same,Galium plant response rating,"[9]; 250 g ai/ha, 0 to 100 scale",100
same,"Plant response rating, Nightshade",[10]; [16],90
same,"Plant response rating, Nightshade",[10]; [17],98
same,"Plant response rating, Nightshade",[10]; [18],100
same,Nightshade plant response rating,[10],100
same,"Plant response rating, Barley",[1]; [11],0
same,"Plant response rating, Barley",[1]; [12],25
same,"Plant response rating, Barley",[1]; [13],30
same,"Plant response rating, Barley",[1]; [14],30
COCCn1c(-c2ccccc2)ncc(C(=O)C2=C(O)CCCC2=O)c1=O [Compound 85],"Plant response rating, Barley",[1]; [19],5
same,Barley plant response rating (0 to 100 scale),[1]; [20],10
same,"Plant response rating, Barley",[1]; [21],20
same,"Plant response rating, Barley",[1]; [22],20
same,"Plant response rating, Surinam Grass",[2]; [23],75
same,"Plant response rating, Surinam Grass",[2]; [12],75
same,"Plant response rating, Surinam Grass",[2]; [13],85
same,"Plant response rating, Surinam Grass",[2]; [24],98
same,"Plant response rating, Surinam Grass",[2]; [25],100
same,"Plant response rating, Surinam Grass",[2]; [26],100
same,"Plant response rating, Ryegrass, Italian",[3]; [23],0
same,"Plant response rating, Ryegrass, Italian",[3]; [12],15
same,"Plant response rating, Ryegrass, Italian",[3]; [13],20
same,"Plant response rating, Ryegrass, Italian",[3]; [27],0
same,"Plant response rating, Ryegrass, Italian",[3]; [24],0
same,"Plant response rating, Ryegrass, Italian",[3]; [25],0
same,"Plant response rating, Ryegrass, Italian",[3]; [26],20
same,"Plant response rating, Prickly Sida",[4]; [23],95
same,"Plant response rating, Prickly Sida",[4]; [12],95
same,"Plant response rating, Prickly Sida",[4]; [13],98
same,"Plant response rating, Prickly Sida",[4]; [24],90
same,"Plant response rating, Prickly Sida",[4]; [25],100
same,"Plant response rating, Prickly Sida",[4]; [28],100
same,"Plant response rating, Prickly Sida",[4]; [26],100
same,"Plant response rating, Barnyardgrass",[5]; [15],50
same,"Plant response rating, Barnyardgrass",[5]; [12],65
same,"Plant response rating, Barnyardgrass",[5]; [13],70
same,"Plant response rating, Barnyardgrass",[5]; [27],30
same,"Plant response rating, Barnyardgrass",[5]; [24],60
same,"Plant response rating, Barnyardgrass",[5]; [25],75
same,"Plant response rating, Barnyardgrass",[5]; [28],95
same,"Plant response rating, Barnyardgrass",[5]; [26],98
same,"Plant response rating, Black Mustard",[6]; [15],60
same,"Plant response rating, Black Mustard",[6]; [12],75
same,"Plant response rating, Black Mustard",[6]; [13],85
same,"Plant response rating, Black Mustard",[6]; [27],35
same,"Plant response rating, Black Mustard",[6]; [24],50
same,"Plant response rating, Black Mustard",[6]; [25],60
same,"Plant response rating, Black Mustard",[6]; [28],98
same,"Plant response rating, Black Mustard",[6]; [26],100
Cc1cc(-n2c(-c3ccccc3)ncc(C(=O)C3=C(O)CCCC3=O)c2=O)ccc1F [Compound 53],"Plant response rating, Sunflower",[8]; [16],15
same,"Plant response rating, Sunflower",[8]; [17],55
same,"Plant response rating, Sunflower",[8]; [18],65
same,"Plant response rating, Galium","[9]; 250 g ai/ha, 0 to 100 scale",90
same,"Plant response rating, Galium",[9]; [16],0
same,"Plant response rating, Galium",[9]; [17],0
same,"Plant response rating, Galium",[9]; [18],0
same,"Plant response rating, Nightshade",[10]; [16],98
same,"Plant response rating, Nightshade",[10]; [17],98
same,"Plant response rating, Nightshade",[10]; [18],100
same,"Plant response rating, Barley",[1]; [19],0
same,"Plant response rating, Barley","[1]; Postemergence, 62 g ai/ha, scale 0 (no effect) to 100 (complete control), 13 to 15 days",50
same,"Plant response rating, Barley",[1]; [21],70
same,"Plant response rating, Barley",[1]; [22],70
